Data on three molecules can be found in patent publication US20020197244A1, “Compositions and methods for regulating phagocytosis and ICAM-1 expression” (priority 1998, published 2002).

Experiment [1] concerns ICAM-1. The experiment is described as follows: ICAM-1 immuno-precipitation and Western blotting in keratinocytes. Format: cell-based. The conditions noted are these: treated keratinocytes; FIG. 6B. How it is done:
Immuno-precipitation and Western blotting experiments were performed, according to known methods, to assess the level of ICAM-1 protein in treated keratinocytes.
On the technique in general: A western blot detects proteins with antibodies after separation by electrophoresis.

Experiment [2] deals with Keratinocytes. The experiment is described as follows: Scanning electron microscopy of keratinocyte podia. Type of experiment: cell-based. The settings on record: treated two days; vs vehicle-treated controls; FIG. 8. How it is done: PAR-2 Effect on Phagocytosis and Migration Relates to Changes in Cell Shape Both phagocytosis and cell migration involve changes in cell shape. Therefore, the effect of the PAR-2 pathway reagents on cell podia were studied using scanning electron microscopy. Keratinocytes were treated with Compound I (identified as “SH00230”), SLIGRL and a buffer vehicle for two days, and then processed for SEM using standard techniques. […] In other words, the cells' “fingers” are shorter and malformed, so they cannot grasp objects as well as can the control cells. […] In other words, these cells have a greater probability for productive interaction with particles. Comparing these SEM pictures in FIG. 8, it is clear that SLIGRL-treated cells have a greater ability to interact with particles, while Compound I-treated cells are less suited for such a task.

The test system of experiment [3] is melanocytes. The experiment is described as follows: Fluorescent microsphere ingestion by melanocytes. Format: cell-based. The conditions noted are these: which do not express PAR-2.
For experiment [4], the system named is fibroblast cell line 92-3T3. The experiment is described as follows: Fluorescent microsphere ingestion by fibroblasts. Format: cell-based. The conditions noted are these: vs untreated fibroblasts; FIG. 3. How it is done:
In this example, human primary keratinocytes or the human keratinocyte cell line HaCaT were used as in vitro model systems to study the effect of PAR-2 regulators on keratinocyte phagocytosis. The human primary keratinocytes used are commercially available from Clonetics (San Diego, Calif.). Cells were plated on chamber slides, at 2 chambers/slide and 60,000 cells/chamber. Cells were treated once daily, for two or three days, with Compound I (1μM), SLIGRL (10μM), or vehicle (Phosphate-buffered saline, (“PBS”) from Gibco-BRL (Gaithersburg, Md.). After two or three days of exposure to the test compounds, cells were exposed to Nile-red or FITC fluorescent microspheres, 1 μm in diameter, 50 microspheres/cell, for two hours at 37° C. Microspheres were from Molecular Probes (Eugene, Oreg.), and were processed according to manufacturer's instructions. Following that treatment, cells were incubated with 15% Fetal Bovine Serum (“FBS”, from Gibco-BRL), for 15 minutes at 37° C. and rinsed with PBS. At that time, chambers were separated from the slides, and the slides were covered with glycerol and coverslips. Fluorescent microscopy was performed using a Zeiss Axiovert 35 or a Nikon Optiphot-2 microscope.
The experiment described in Example 1 was repeated using the fibroblast cell line 92-3T3 (obtained from the ATCC in Rockville, Md.). Fibroblasts are not known to posses phagocytic ability.

For experiment [5], the system named is human age spots. The experiment is described as follows: Lightening of human age spots, topical treatment. Type of experiment: in vivo. The settings on record: STI, 1%, in liposomes (20 mg/ml), twice a day, 8 weeks. How it is done: An individual with three age spots on the dorsum of […] hand was treated for eight weeks, twice a day, as follows. The proximal age spot was treated with placebo, containing 20 mg/ml of liposomes. The median age spot was not treated. The distal age spot was treated with STI, 1%, in liposomes (20 mg/ml). GDL liposomes were prepared as set forth in Niemiec, et al., with the exception of the following changes. The non-ionic liposomal formulation contained glycerol dilaurate (Emulsynt GDL, ISP Van Dyk)/cholesterol (Croda)/polyoxyethylene-10-stearyl ether (Brij76, ICI)/polyoxyethylene-9-lauryl ether, as at ratio of 37.5:12.5:33.3:16.7. Hepes buffer, 0.05M, pH 7.4 (Gibco-BRL of Gaithersburg, Md.) was used as the aqueous phase in the preparation of the liposomes. UV and visible light digital pictures were taken at times of 0, 4 and 8 weeks of treatment. L* (brightness) values were calculated from the images using Adobe Photoshop.
FIG. 11 is a composite of four pictures. The left panel is a visible light picture of the hand, before (upper) and after (lower) 8 weeks of treatment. At this orientation, the proximal age spot is placebo-treated, the median age spot is untreated, and the distal age spot is STI-treated.

Turning to `CN[C@H](Cc1ccccc1)C(=O)N1CCCC1C(=O)N[C@@H](CCCNC(=N)N)C(=O)c1nc2ccccc2s1` (stereo partly drawn) [Compound I, (S)-N-Methyl-D-phenylalanyl-N-[4-[(aminoiminomethyl)amino]-1-(2-benzothiazolylcarbonyl)butyl]-L-prolinamide], the “level of ICAM-1 protein expression” value in experiment [1] is listed as “decreased the level of ICAM-1 expression”. Besides, the “shape of cell podia” value in experiment [2] is recorded as “dramatically shorter podia”.

Turning to SLIGRL [reference compound], the “level of ICAM-1 protein expression” value in experiment [1] is “increased the level of ICAM-1 expression”. Also, the microsphere ingestion result in experiment [3] is “no inducible effect on microsphere ingestion”. Further, the “shape of cell podia” value in experiment [2] is “podia were increased in number, were somewhat longer, and were much thinner”. Also, the “number of ingested beads” value in experiment [4] was “increased the number of ingested beads”.

B1: STI: Soybean trypsin inhibitor, a serine protease inhibitor capable of affecting the PAR-2 pathway (protein, UniProt P01070 25-205, looked up)
Trypsin inhibitor A: DFVLDNEGNPLENGGTYYILSDITAFGGIRAAPTGNERCPLTVVQSRNELDKGIGTIISSPYRIRFIAEGHPLSLKFDSFAVIMLCVGIPTEWSVVEDLPEGPAVKIGENKDAMDGWFRLERVSDDEFNNYKLVFCPQQAEDDKCGDIGISIDHDDGTRRLVVSKNKPLVVQFQKLDKESL
As for B1, the “increase in L* (brightness)” value in experiment [5] (calculated from images) is 15 L* units. Further, the age spot appearance entry in experiment [5] (one individual, FIG. 11) was “became lighter”.
